Measured values from paper PMC7913621 (Molecules, 2021).

Assays:
[1] = test system: epidermoid carcinoma A-431; assay: MTT cell viability assay, A-431; type: cell-based, human; settings: Homo sapiens; A-431, MTT, 72 h; median (95% Confidence Intervals)
Procedure: (§1) The following human cell lines were used in this study: (i) epidermoid carcinoma A-431 (ATCC® CRL-1555), (ii) lung carcinoma A549 (ATCC® CCL-185), (iii) colorectal carcinoma HCT116 (ATCC® CCL-247), (iv) HCT116p53^−/−, (v) glioblastoma U-87 MG (ATCC® HTB-14), (vi) glioblastoma U-251 MG (ECACC 09063001), (vii) breast adenocarcinoma MCF7 (ATCC® HTB-22), (viii) breast adenocarcinoma MDA-MB-231 (ECACC 92020424), (ix) papillomavirus-related cervical squamous cell carcinoma SKG-IIIa (RRID:CVCL_1704), (x) cervical adenocarcinoma HeLa (ATCC® CCL-2), (xi) bone osteosarcoma U-2 OS (ATCC® HTB-96), (xii) hepatocellular carcinoma HEPG2 (ATCC® HB-8065), (xiii) larynx squamous cell carcinoma BICR 18 (ECACC 06051601), (ix) kidney HEK 293T (ATCC® CRL-11268), (xv) normal lung fibroblasts MRC-5 (ATCC® CCL-171), (xvi) normal fibroblasts BJ (ATCC® CRL-2522). The HCT116p53^−/− cell line was a kind gift from professor Bert Vogelstein (John Hopkin’s University, Baltimore, MD, USA). The remaining cell lines were purchased from ATCC (Manassas, VA, USA) or Sigma-Aldrich by Merck (Darmstadt, Germany).
(§2) Cells were cultured in minimal or Dulbecco’s modified Eagle’s or Ham’s F10 medium supplemented with 10% fetal bovine serum (Gibco by Thermo Fisher Scientific, Waltham, MA, USA) and (for BICR 18) 0.4 μg/mL hydrocortizone (Sigma-Aldrich by Merck, Darmstadt, Germany) under standard culture conditions (37 °C, 5% CO2) in a humidified incubator with an atmospheric oxygen.
(§3) The viability of cells was assayed by measuring the conversion of MTT (3-(4,5-dimethylthiazol-2-yl)-2,5-diphenyltetrazolium bromide) to the formazan (the rate of this reaction is proportional to the number of surviving cells). Cells were seeded in a 96-well plate at a density of 2500–3500 cells per well, 24 h before treatment. […] MTT stock solution (Sigma-Aldrich) was added at the final concentration 0.5 mg/mL. After 4 h of incubation at 37 °C, water-insoluble formazan was dissolved in a lysis buffer containing 20% SDS, 50% DMF, 2.5% hydrochloric acid and 2.5% acetic acid. Optical densities were measured at 570 nm using a scanning multi-well spectrophotometer ([…] Detection Platform; Beckman Coulter, Brea, CA, USA). At least three independent experiments of viability were conducted.

[2] = test system: colorectal carcinoma HCT116; assay: MTT cell viability assay, HCT116; type: cell-based, human; settings: Homo sapiens, HCT-116, 72 h, median (95% Confidence Intervals)
Procedure: as §1, §2, §3

[3] = test system: colorectal carcinoma HCT116p53^−/−; assay: MTT cell viability assay, HCT116p53−/−; type: cell-based, human; settings: Homo sapiens, 72 h, median (95% Confidence Intervals)
Procedure: as §1, §2, §3

[4] = test system: glioblastoma U-87 MG; assay: MTT cell viability assay, U-87 MG; type: cell-based, human; settings: Homo sapiens, 72 h, median (95% Confidence Intervals)
Procedure: as §1, §2, §3

[5] = test system: breast adenocarcinoma MCF7; assay: MTT cell viability assay, MCF7; type: cell-based, human; settings: Homo sapiens, 72 h, median (95% Confidence Intervals)
Procedure: as §1, §2, §3

[6] = test system: cervical squamous cell carcinoma SKG-IIIa; assay: MTT cell viability assay, SKG-IIIa; type: cell-based, human; settings: Homo sapiens, SKGIIIa, 72 h, median (95% Confidence Intervals)
Procedure: as §1, §2, §3

[7] = test system: cervical adenocarcinoma HeLa; assay: MTT cell viability assay, HeLa; type: cell-based, human; settings: Homo sapiens, 72 h, median (95% Confidence Intervals)
Procedure: as §1, §2, §3

[8] = test system: bone osteosarcoma U-2 OS; assay: MTT cell viability assay, U-2 OS; type: cell-based, human; settings: Homo sapiens, U2OS, 72 h, median (95% Confidence Intervals)
Procedure: as §1, §2, §3

[9] = test system: kidney HEK 293T; assay: MTT cell viability assay, HEK 293T; type: cell-based, human; settings: Homo sapiens, 72 h, median (95% Confidence Intervals)
Procedure: as §1, §2, §3

[10] = biological target: T1, recombinant human PDE5A/PDE5 protein (Homo sapiens, UniProt O76074); assay: colorimetric PDE Activity Assay Kit (Abcam), PDE5 inhibition; type: biochemical; settings: for IC50: 200 μM cGMP, 40 ng enzyme, 20 min at 37 °C, 4% DMSO, read-out: IC50 against human PDE5; for Ki: read-out: Ki against human PDE5
T1 construct: purchased Abcam
Procedure: A high concentration of cGMP substrate was used (200 μM) due to the moderate sensitivity of the aforementioned assay.
The inhibitory effect of the tested compounds was measured using colorimetric PDE Activity Assay Kit (Abcam, Cambridge, UK). This assay allows the quantification of 5′-nucleotide released in the reaction catalyzed by tested phosphodiesterase, PDE5, using the additional enzyme 5′-nucleotidase to cleave the mentioned product, and next, using modified Malachite Green assay, the phosphate is quantified. The assay was carried in a 96-well plate at a volume of 40 μL in an assay buffer, containing 40 ng recombinant human PDE5A/PDE5 protein (Abcam), 200 μM cGMP, 25 kU 5′-nucleotidase and serially diluted ligand to preserve 4% of DMSO. The reaction was initiated with the enzyme and kept going for 20 min at 37 °C. The reaction was stopped by adding 80 μL of Green Assay reagent. After incubation at room temperature for 30 min (to develop color proportional to phosphate content), the absorbance at 620 nm was measured with The SpectraMax iD3 Multi-Mode Microplate Reader (Molecular Devices, San Jose, CA, USA). Inhibitors concentrations varied in the range of 2 pM–200 μM. Each experiment was repeated 4–5 times and IC50 values were calculated by global fitting of the sigmoidal dose response equation implemented in Origin 9.0 package (www.originlab.com). For each experiment, control reaction with no enzyme added and without inhibitor was also performed.

[11] = test system: lung carcinoma A549; assay: MTT cell viability assay, A549; type: cell-based, human; settings: Homo sapiens, 72 h, median (95% Confidence Intervals)
Procedure: as §1, §2, §3

[12] = test system: glioblastoma U-251 MG; assay: MTT cell viability assay, U-251 MG; type: cell-based, human; settings: Homo sapiens, 72 h, median (95% Confidence Intervals)
Procedure: as §1, with “The remaining cell lines were purchased from ATCC (Manassas, VA, USA) or Sigma-Aldrich by Merck (Darmstadt, Germany).” left out
The viability of cells was assayed by measuring the conversion of MTT (3-(4,5-dimethylthiazol-2-yl)-2,5-diphenyltetrazolium bromide) to the formazan (the rate of this reaction is proportional to the number of surviving cells). […] Optical densities were measured at 570 nm using a scanning multi-well spectrophotometer ([…] Detection Platform; Beckman Coulter, Brea, CA, USA). […]

[13] = test system: breast adenocarcinoma MDA-MB-231; assay: MTT cell viability assay, MDA-MB-231; type: cell-based, human; settings: Homo sapiens; MDA-MB-231, MTT, 72 h; median (95% Confidence Intervals)
Procedure: as §1, §2, §3

[14] = test system: hepatocellular carcinoma HEPG2; assay: MTT cell viability assay, HEPG2; type: cell-based, human; settings: Homo sapiens, 72 h, median (95% Confidence Intervals)
Procedure: as §1, §2, §3

[15] = test system: larynx squamous cell carcinoma BICR 18; assay: MTT cell viability assay, BICR 18; type: cell-based, human; settings: Homo sapiens; BICR 18, MTT, 72 h; median (95% Confidence Intervals)
Procedure: as §1, §2, §3

[16] = test system: normal lung fibroblasts MRC-5; assay: MTT cell viability assay, MRC-5; type: cell-based, human; settings: Homo sapiens, MRC5; MRC-5, MTT, 72 h; median (95% Confidence Intervals)
Procedure: as §1, §2, §3

[17] = test system: normal fibroblasts BJ; assay: MTT cell viability assay, BJ; type: cell-based, human; settings: Homo sapiens, Fibroblast, 72 h, median (95% Confidence Intervals)
Procedure: as §1, §2, §3

[18] = test system: blood platelet aggregation; assay: platelet aggregation in platelet-rich plasma (light transmittance aggregometry, collagen + DEA-NO); type: cell-based; settings: Homo sapiens, 10 μM compound, 500 nM DEA-NO, 2 μg/mL collagen, vs DMSO + DEA-NO
Source text: Nitric oxide is one of the main physiological antiplatelet molecules secreted by vascular endothelium. It stimulates intraplatelet production of cGMP. This secondary messenger is then decomposed in platelets by the activity of two out of three PDE isoforms which are detected in platelets, namely by PDE2 and PDE5, while the other isoform (PDE3) is mostly involved in cAMP hydrolysis. Inhibitors of these phosphodiesterases increase intraplatelet concentration of cGMP and thus potentiate the antiplatelet effect of NO [52]. […]
Multiplate test cells for turbidimetric aggregometry and collagen were purchased from Chronolog Co (Havertown, PA, USA). […] DEA-NO was added to the final concentration of 500 nM, and shortly after, collagen was added to each sample to a final concentration of 2 μg/mL to induce platelet aggregation, which was thereafter monitored for 10 min using an optical aggregometer Chrono-Log 490-2D (Chrono-Log, Havertown, PA, USA). The total area under the aggregation curve (AUC) and the maximal value of platelet aggregation (Amax,U) was recorded. […]
Shortly prior to measurement, 500 nM DEA-NO was added, followed by 2 μg/mL collagen. Percentage of inhibition of platelet response was calculated in comparison to a sample treated with DMSO and DEA-NO on the basis of maximal value of platelet aggregation. […]

[19] = test system: PDE5; settings: read-out: earlier reported IC50 values for PDE5; cited from earlier work

| IC50 [1] [µM] | IC50 [2] [µM] | IC50 [3] [µM] | IC50 [4] [µM] | IC50 [5] [µM] | IC50 [6] [µM] | IC50 [7] [µM] | IC50 [8] [µM] | IC50 [10] [µM] | Ki [10] [µM] | SMILES | IC50 [9] [µM] | IC50 [11] [µM] | IC50 [14] [µM] | IC50 [15] [µM] | IC50 [16] [µM] | IC50 [17] [µM] | other results |
| --- | --- | --- | --- | --- | --- | --- | --- | --- | --- | --- | --- | --- | --- | --- | --- | --- | --- |
| 104 | 102 | 83.2 | 153 | 53.2 | 146 | 120 | 93.5 | 137 ± 47 | 1.4 ± 0.8 | CN1CC(=O)N(Cc2ccc3c(c2)OCO3)[C@H](Cc2c[nH]c3ccccc23)C1=O [Compound 6a, (R)-3-((1H-indol-3-yl)methyl)-4-(benzo[d][1,3]dioxol-5-ylmethyl)-1-methylpiperazine-2,5-dione] | 10.5 |  |  |  |  |  |  |
| 63.6 | 53 | 35.9 | 110 | 28.9 | 75.9 | 79.2 | 95.4 | 22 ± 12 | 0.22 ± 0.17 | CN1CC(=O)N(Cc2cc3c(cc2Br)OCO3)[C@H](Cc2c[nH]c3ccccc23)C1=O [Compound 7a, (R)-3-((1H-indol-3-yl)methyl)-4-((6-bromobenzo[d][1,3]dioxol-5-yl)methyl)-1-methylpiperazine-2,5-dione] | 12.3 | 128 | 103 | 137 | 116 | 117 | times less effective than tadalafil as PDE5 inhibitor ([10]; compared with tadalafil, human PDE5): over 300 |

| SMILES | IC50 [1] [µM] | IC50 [2] [µM] | IC50 [3] [µM] | IC50 [4] [µM] | IC50 [5] [µM] | IC50 [6] [µM] | IC50 [7] [µM] | IC50 [8] [µM] | IC50 [10] [µM] | Ki [10] [µM] | IC50 [9] [µM] | IC50 [11] [µM] | IC50 [14] [µM] | IC50 [15] [µM] | IC50 [16] [µM] | IC50 [17] [µM] | other results |
| --- | --- | --- | --- | --- | --- | --- | --- | --- | --- | --- | --- | --- | --- | --- | --- | --- | --- |
| CN1CC(=O)N2[C@H](c3ccc4c(c3)OCO4)c3[nH]c4ccccc4c3C[C@@H]2C1=O [Tadalafil, reference compound] | 20.4 | 27.2 | 19.8 | 40.7 | 55.3 | 35.1 | 42.3 | 35.1 |  |  | 31 | 51.5 | 46.6 | 52.5 | 28.7 | 40.5 | IC50 [12]: 44.1 µM; IC50 [13]: 87.6 µM; inhibition at 10 µM [18]: ~50%; IC50 [19]: […] |
